The text below walks through data of patent US20120039796A1, “Novel method for creating, suspending and stabilizing electronically modified oxygen derivatives, along with creating, suspending and stabilizing electronically modified reaction intermediates, in a bio compatible fluorocarbon suspension, for the purpose of inducing a cascading immune response in …” (priority 2010, published 2012).

One data set concerns cancer cell cultures. The conditions noted are these: cited from earlier work.
The target of a further data set is T1, TrxR (Homo sapiens, UniProt Q16881).
T1 sequence (Q16881 151-649 limits assumed): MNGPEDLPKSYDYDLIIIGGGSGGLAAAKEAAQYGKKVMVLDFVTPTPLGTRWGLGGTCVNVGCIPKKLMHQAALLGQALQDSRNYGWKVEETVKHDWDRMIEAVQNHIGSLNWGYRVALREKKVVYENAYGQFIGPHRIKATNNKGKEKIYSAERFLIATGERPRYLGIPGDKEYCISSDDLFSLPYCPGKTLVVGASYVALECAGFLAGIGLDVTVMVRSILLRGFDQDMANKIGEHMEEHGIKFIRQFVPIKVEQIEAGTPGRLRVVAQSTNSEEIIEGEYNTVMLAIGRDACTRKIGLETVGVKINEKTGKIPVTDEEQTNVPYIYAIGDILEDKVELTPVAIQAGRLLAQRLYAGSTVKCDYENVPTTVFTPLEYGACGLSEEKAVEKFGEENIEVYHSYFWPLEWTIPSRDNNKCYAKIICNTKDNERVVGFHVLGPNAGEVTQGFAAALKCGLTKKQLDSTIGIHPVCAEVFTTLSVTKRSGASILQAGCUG
The settings on record: cited from earlier work.

The conditions of data set [1]: cited from earlier work.
The conditions of data set [2]: cited from earlier work. This is another data set of the same source.
Data set [3] in a line: Stability of ozone in 95% pure Fluorodecalin (C10F18), non-frozen, continuous absorbance at 260 nm. It counts as physicochemical. The method, then:
(§1) After the ten hours expired, the spectrometer was quickly restarted for another 10 hours, were after the first 4 hours and 20 min in the second run is where the sample reached its half life. Once the 20 hours expired, the ABS reading was 0.082 were it took another 10 hours for Ozone too fully decay.
In the first PFC experiment, the ozone was stable within the PFC matrix for over 5 hours without any appreciable decay, after 5 hours the sample started to deviate and when the 10 hours mark was reached, the reading was around 0.600 ABS, in the last 5 hours of the run is when the sample lost 0.09 ABS, this was excellent result. In the second part of the experiment is where the sample decay accelerated. […] It should be noted the sample of PFC was 95% pure, and was the only purity I could attain at the time for the experiment and due to time constraints another sample could not have been attained. It should also be noted when the sample was finally removed from the machine for clean up, about 60 hours later after the initial experiment, half the sample evaporated. […] The utility of this patent is self evident; this invention solves the problems that plagued modern ozone therapy for the last 100 years.

Data set [4] can be described thus: Decay of ozone bubbled into distilled water, absorbance at 260 nm. In kind it is physicochemical. Here is the method: 15 ml of distilled h20 was used to bubble a mixture of ozone/oxygen through the sample for 30 min in a glass bubbler using a custom made proton exchange membrane ozone machine, which then 0.01 ml sample was quickly placed in a hatch DR 4000 u spectrometer, the machine was zeroed before the sample was placed in, also the absorbance wave length was set for 260 nm, the detection absorbance band of ozone, initial results at the peak were 0.590 ABS, but quickly decayed and after 20 min the ozone present in the sample was completely gone. This is the main problem with modem ozone therapy, the sample disappears with a predictable results extremely fast decay rate with in 20 min, and there is not enough of a concentration left to make a therapeutic difference, especially for burns, ulcerations, tendon injections.

The nature of data set [5]: Stability of ozone in Fluorodecalin stored frozen at -50 C for 30 days, absorbance at 260 nm. It counts as physicochemical. Here is the method: as §1
After 30 days, the sample that was placed in the freezer was removed out of the freezer, with in 5 min the sample was completely thawed, which then a 0.01 ml sample was quickly placed it into the spectrometer were 3 consecutive single non timed scans were taken, with an average highest ABS reading of 0.688.

`O=CC[C@@H](O)[C@H](O)[C@H](O)CO` [Example 2-DG, 2-Deoxy-D-glucose]: in the data set with cancer cell cultures (by glucose deprivation), the apoptosis entry is recorded as “induces apoptosis”. Besides, the “effect on cell growth” value in the data set on cancer cell cultures is “hampers cell growth”.

Turning to `O=c1c(O)c(-c2cc(O)c(O)c(O)c2)oc2cc(O)cc(O)c12` [myricetin], at TrxR, the “inhibitory effect on TrxR” value is “NADPH-, concentration-, and time-dependent inhibitory effect”.

For the compound `O=O` [oxygen], in data set [1] (PFC liquids for biomedical applications, 37° C., 1 atm), the “solubility in PFC liquids” value is on record as 40-50 vol. %. Further, the solubility in water in data set [1] (water, 37° C., 1 atm) is reported as 2.5 vol. %.

For the compound `O=[O+][O-]` [ozone], the “time stable in air at -50 degrees C” value in data set [2] (air, -50 degrees C) is “about 3 months”. In addition, the half-life in air in data set [2] (air) was 12 h. Also, the half-life in saline result in data set [2] (saline) is listed as “less than 20 min”. Further, the half-life in water entry in data set [2] (watery solution) is given as “about 20 minutes”. Moreover, the “amount dissolved in perfluorodecalin relative to oxygen” value in data set [1] (at stp) is recorded as 13 times. Moreover, the “initial absorbance at the highest peak” value in data set [3] (20/80 ozone/oxygen bubbled 20 min in Fluorodecalin, 260 nm) is “around 0.690 ABS”. In addition, in data set [3] (Fluorodecalin, non-frozen), the “absorbance at the 10 hours mark” value is on record as “around 0.600 ABS”, the “absorbance once 20 hours expired” value is 0.082 ABS and the “further time for ozone to fully decay after the 20 hours” value came out at 10 h. Besides, the “deviation in ABS over the first 10 hours” value in data set [3] (Fluorodecalin, non-frozen, first 10 hour run) came out at 0.09 ABS. The “time after which ozone in the sample was completely gone” value in data set [4] (distilled h20) is 20 min. In addition, the “initial absorbance at the peak” value in data set [4] (ozone/oxygen bubbled 30 min through distilled h20, 260 nm) was 0.590 ABS. Besides, the “stability in the frozen state” value in data set [5] (30 days at -50 C) is reported as “fully stabilized”. For the same compound, the “average highest ABS reading after storage” value in data set [5] (30 days in freezer at -50 C, thawed, 3 scans) is given as 0.688 ABS.

On to `FC1(F)C(F)(F)C(F)(F)C2(F)C(F)(F)C(F)(F)C(F)(F)C(F)(F)C2(F)C1(F)F` (centres unmarked) [perfluorodecalin], for which the “volume of oxygen dissolved by 100 ml” value in data set [1] (100 ml perfluorodecalin at 25° C., oxygen at STP) was 49 mL.

For the compound `O=c1c(O)c(-c2ccc(O)c(O)c2)oc2cc(O)cc(O)c12` [quercetin], the “inhibitory effect on TrxR” value at TrxR was “NADPH-, concentration-, and time-dependent inhibitory effect”.

As to `O=C1c2c(O)cc(O)cc2O[C@H](c2ccc(O)c(O)c2)[C@H]1O` [taxifolin], on TrxR, the “inhibitory effect on TrxR” value was “NADPH-, concentration-, and time-dependent inhibitory effect”.

For catechin, the “inhibitory effect on TrxR” value on TrxR was “NADPH-, concentration-, and time-dependent inhibitory effect”.
